Consider 18 compounds from patent US11439633B2, “Tetrahydroquinoline derivatives as P2X7 receptor antagonists” (RaQualia Pharma Inc., priority 2017, dated 2022).

pIC50: −log10 of the molar value.

Sequence of human P2X7 (Q99572 whole entry): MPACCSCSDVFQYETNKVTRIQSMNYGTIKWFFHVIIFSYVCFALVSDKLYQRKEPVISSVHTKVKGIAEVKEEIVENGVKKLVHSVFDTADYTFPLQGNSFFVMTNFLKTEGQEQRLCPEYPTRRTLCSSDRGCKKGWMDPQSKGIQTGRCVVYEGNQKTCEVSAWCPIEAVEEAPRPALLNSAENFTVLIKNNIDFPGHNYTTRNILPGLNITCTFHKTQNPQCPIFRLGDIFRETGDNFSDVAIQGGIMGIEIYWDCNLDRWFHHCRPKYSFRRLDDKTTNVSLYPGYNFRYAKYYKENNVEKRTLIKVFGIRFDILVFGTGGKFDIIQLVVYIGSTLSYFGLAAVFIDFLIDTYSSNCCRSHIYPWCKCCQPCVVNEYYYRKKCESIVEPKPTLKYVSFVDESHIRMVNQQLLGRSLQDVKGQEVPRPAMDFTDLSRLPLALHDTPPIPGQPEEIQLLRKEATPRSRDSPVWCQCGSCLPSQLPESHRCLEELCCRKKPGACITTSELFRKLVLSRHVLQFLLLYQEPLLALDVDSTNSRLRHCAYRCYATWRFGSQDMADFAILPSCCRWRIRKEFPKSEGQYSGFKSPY
Sequence of rat P2X7 (Q64663 whole entry): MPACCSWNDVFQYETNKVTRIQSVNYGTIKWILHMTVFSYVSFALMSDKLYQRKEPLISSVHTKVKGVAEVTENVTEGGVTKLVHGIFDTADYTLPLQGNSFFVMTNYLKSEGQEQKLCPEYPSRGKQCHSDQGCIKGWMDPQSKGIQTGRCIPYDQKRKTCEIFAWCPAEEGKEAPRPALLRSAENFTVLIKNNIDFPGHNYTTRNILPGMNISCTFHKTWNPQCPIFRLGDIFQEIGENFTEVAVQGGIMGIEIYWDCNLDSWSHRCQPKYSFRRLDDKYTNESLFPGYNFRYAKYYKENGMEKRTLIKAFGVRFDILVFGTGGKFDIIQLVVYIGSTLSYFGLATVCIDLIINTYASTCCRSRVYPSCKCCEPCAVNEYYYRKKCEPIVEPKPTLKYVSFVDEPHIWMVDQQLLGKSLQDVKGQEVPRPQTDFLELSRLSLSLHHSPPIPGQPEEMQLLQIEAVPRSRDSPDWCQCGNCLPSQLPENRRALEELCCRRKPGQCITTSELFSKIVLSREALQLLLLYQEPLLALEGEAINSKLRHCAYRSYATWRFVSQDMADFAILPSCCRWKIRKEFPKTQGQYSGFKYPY

The first assay has as its target human P2X7 (Homo sapiens (Human), UniProt Q99572). Put plainly: Human P2X7 functional assay (Ca2+ influx, Fluo-4, FDSS, BzATP activation). Format: cell-based. The following applies: antagonistic activity with respect to the human P2X7 receptor; BzATP final concentration 80 microM; 7-point dose-response. How it is done: Human P2X7 Functional Assay
(§1) The functional activity of compounds was determined by measuring changes in intracellular calcium concentration using a Ca^2+-sensitive fluorescent dye, Fluo-4 (Molecular Probes). The changes in fluorescent signal were monitored by the cell imaging technology by Hamamatsu Photonics's Functional Drug Screening System (FDSS). Increases in intracellular Ca^2+ concentration were readily detected upon activation with BzATP.
HEK293 cells stably expressing human P2X7 (GenBank accession number BC011913) carrying a C-terminal FLAG tag were grown in T225 flasks, in a 5% CO2 humidified incubator to about 80% confluence. Media composition consisted of Dulbecco's Modified Eagle Medium (high glucose), 10% fetal bovine serum ([…]), 100 units/[…] Penicillin, 100 microg/mL Streptomycin and 250 microg/mL Geneticine.
1. Plate-out HEK293-human P2X7 cells (40 microL medium containing 10,000 cells per well) into poly-D-lysine coated 384-well plates (Corning) at 24 h prior to assay.
2. Incubate at 37° C. in 5% CO2.
3. Incubate the plate at 37° C. in 5% CO2 for 1 h.
5. Test compounds were prepared at 100× the test concentration in DMSO by serial dilution with Biomek-FX liquid handling instrument. 33× diluted compound solutions in assay buffer were prepared in intermediate compound plate with Biomek-NX liquid handling instrument. A further 3× dilution occurred in below steps 6 and 7.
6. Add 20 microL of 33× diluted compound solutions into each well and leave the plate for 10 min under the dark at room temperature.
7. Measure activity by FDSS as follows: • Set the assay plate on the stacker of FDSS. • Start the detection of fluorescence intensity at 540 nm by 480 nm exicitation. • After 30 seconds, add 20 microL of assay buffer containing 240 microM BzATP (final concentration 80 microM).
IC50 values for compounds of the present invention were determined from 7-point dose-response studies. Curves were generated using the average of duplicate wells for each data point. Finally, the IC50 values are calculated with the best-fit dose curve determined by XLfit (ID Business Solutions Ltd.).
In the case of `C[C@]1(O)CC[C@@](F)(C(=O)NCc2c(F)cc(F)cc2Cl)c2cccnc21` [Example 266, (5S,8S)-N-(2-chloro-4,6-difluorobenzyl)-5-fluoro-8-hydroxy-8-methyl-5,6,7,8-tetrahydroquinoline-5-carboxamide], the pIC50 (in general, the IC50 on a negative log10 scale, so that one unit is a factor of ten) was > 7.30.
On to `O=C(NCCc1ccc(Cl)cc1Cl)[C@]1(F)CC[C@H](O)c2ncccc21` [Example 191, (5S,8S)-N-(2,4-dichloro-phenethyl)-5-fluoro-8-hydroxy-5,6,7,8-tetrahydro-quinoline-5-carboxamide], for which the negative-log IC50 (pIC50) was > 7.30.
On the same count and under the same terms, the value for `Cc1cccc(Cl)c1CNC(=O)[C@]1(F)CC[C@H](O)c2ncccc21` [Example 161, (5S,8S)-N-(2-chloro-6-methylbenzyl)-5-fluoro-8-hydroxy-5,6,7,8-tetra-hydroquinoline-5-carbox-amide] was > 7.30; that for `Cc1cc(Cl)cc(Cl)c1CNC(=O)[C@@]1(F)CC[C@@H](O)c2ncccc21` [Example 126, (5R,8R)-N-(2,4-dichloro-6-methylbenzyl)-5-fluoro-8-hydroxy-5,6,7,8-tetrahydroquinoline-5-carboxamide] was > 7.30.
The same measure, in the same setting: the value for `O=C(NCc1cccc(C(F)(F)F)c1F)[C@]1(F)CC[C@H](O)c2ncccc21` [Example 175, (5S,8S)-5-fluoro-N-(2-fluoro-3-(trifluoromethyl)benzyl)-8-hydroxy-5,6,7,8-tetrahydroquinoline-5-carboxamide] was > 7.30; that for `Cc1cc(Cl)cc(Cl)c1CNC(=O)[C@]1(F)CC[C@H](O)c2ncccc21` [Example 127, (5S,8S)-N-(2,4-dichloro-6-methylbenzyl)-5-fluoro-8-hydroxy-5,6,7,8-tetrahydroquinoline-5-carboxamide] was > 7.30.
For `O=C(NCc1c(Cl)cc(Cl)cc1CO)C1CCC(O)c2ncccc21` (stereo not drawn) [Example 9, N-(2,4-dichloro-6-(hydroxymethyl)benzyl)-8-hydroxy-5,6,7,8-tetrahydroquinoline-5-carboxamide], the pIC50 is > 7.30.
On the same count and under the same terms, with `O=C(NCc1ccc(F)cc1C(F)(F)F)[C@]1(F)CC[C@H](O)c2ncccc21` [Example 144, (5S,8S)-5-fluoro-N-(4-fluoro-2-(trifluoromethyl)benzyl)-8-hydroxy-5,6,7,8-tetrahydroquinoline-5-carboxamide] the figure was > 7.30.
With `C[C@]1(O)CC[C@@](F)(C(=O)NC2CC2c2ccc(Cl)cc2Cl)c2cccnc21` (stereo partly drawn) [Example 273, (5S,8S)-N-((trans)-2-(2,4-dichlorophenyl)cyclopropyl)-5-fluoro-8-hydroxy-8-methyl-5,6,7,8-tetrahydro-quinoline-5-carboxamide], the negative-log IC50 (pIC50) was > 7.30.
Still for that read-out and setting: the value for `O=C(NCc1c(F)cccc1C(F)(F)F)[C@]1(F)CC[C@H](O)c2ncccc21` [Example 186, (5S,8S)-5-fluoro-N-(2-fluoro-6-(trifluoromethyl)benzyl)-8-hydroxy-5,6,7,8-tetrahydroquinoline-5-carboxamide] was > 7.30; that for `CS(=O)(=O)C1CC[C@@](F)(C(=O)NCc2ccc(Cl)cc2Cl)c2cccnc21` (stereo partly drawn) [Example 350, (5S)-N-(2,4-dichlorobenzyl)-5-fluoro-8-(methylsulfonyl)-5,6,7,8-tetrahydroquinoline-5-carboxamide] was > 7.30.
Still for that read-out and setting: the value for `O=C(NCc1c(F)cc(Cl)cc1Cl)[C@]1(F)CC[C@H](O)c2ncccc21` [Example 152, (5S,8S)-N-(2,4-dichloro-6-fluorobenzyl)-5-fluoro-8-hydroxy-5,6,7,8-tetrahydroquinoline-5-carboxamide] was > 7.30.
On the same count and under the same terms, the value for `C[C@]1(O)CC[C@@](F)(C(=O)NCc2c(F)cc(Cl)cc2Cl)c2cccnc21` [Example 265, (5S,8S)-N-(2,4-dichloro-6-fluorobenzyl)-5-fluoro-8-hydroxy-8-methyl-5,6,7,8-tetrahydroquinoline-5-carboxamide] was > 7.30.
With `C[C@]1(O)CC[C@@](F)(C(=O)NCc2ccc(Cl)c(F)c2F)c2cccnc21` [Example 267, (5S,8S)-N-(4-chloro-2,3-difluorobenzyl)-5-fluoro-8-hydroxy-8-methyl-5,6,7,8-tetrahydroquinoline-5-carboxamide], the pIC50 is > 7.30.
On the same count and under the same terms, with `O=C(NCc1ccc(F)c(F)c1Cl)[C@]1(F)CC[C@H](O)c2ncccc21` [Example 174, (5S,8S)-N-(2-chloro-3,4-difluorobenzyl)-5-fluoro-8-hydroxy-5,6,7,8-tetra-hydroquinoline-5-carboxamide] the figure was > 7.30; with `CO[C@H]1CC[C@@](F)(C(=O)NCc2c(F)cc(Cl)cc2Cl)c2cccnc21` [Example 335, (5S,8S)-N-(2,4-dichloro-6-fluorobenzyl)-5-fluoro-8-methoxy-5,6,7,8-tetrahydroquinoline-5-carboxamide], > 7.30.
On the same count and under the same terms, the value for `O=C(NCc1cc(Br)ccc1Cl)[C@]1(F)CC[C@H](O)c2ncccc21` [Example 181, (5S,8S)-N-(5-bromo-2-chlorobenzyl)-5-fluoro-8-hydroxy-5,6,7,8-tetra-hydroquinoline-5-carbox-amide] was > 7.30.

Another assay addresses rat P2X7 (Rattus norvegicus (Rat), UniProt Q64663). The assay can be described thus: Rat P2X7 functional assay (Ca2+ influx, Fluo-4, FDSS, BzATP activation). Format: cell-based. The following applies: HEK293 cells stably expressing rat P2X7; BzATP final 10 microM; read-out: Antagonistic activities with respect to the rat P2X7 receptor (IC50). How it is done:
Rat P2X7 Functional Assay
as §1
HEK293 cells stably expressing rat P2X7 (GenBank accession number NM_019256) were grown in Corning CellBIND cell culture flasks, in a 5% CO2 humidified incubator to about 80% confluence. Media composition consisted of Dulbecco's Modified Eagle Medium (high glucose), 10% fetal bovine serum ([…]), 100 units/[…] Penicillin, 100 microg/mL Streptomycin and 250 microg/mL Geneticine.
1. […]
7. Measure activity by FDSS as follows: • Set the assay plate on the stacker of FDSS. • Start the detection of fluorescence intensity at 540 nm by 480 nm exicitation. • After 30 seconds, add 20 microL of assay buffer containing 30 microM BzATP (final 10 microM).
IC50 values for compounds of the present invention were determined from 7-point dose-response studies. […] Finally, the IC50 values are calculated with the best-fit dose curve determined by XLfit (ID Business Solutions Ltd.).
As for `Cc1cc(Cl)cc(Cl)c1CNC(=O)[C@@H]1CC[C@H](O)c2ncccc21` [Example 64, (5R,8S)-N-(2,4-dichloro-6-methylbenzyl)-8-hydroxy-5,6,7,8-tetrahydroquinoline-5-carboxamide], the pIC50 was > 6.00.
